Reference: ChEMBL document CHEMBL3045535, “Evaluation of lufenuron as a chemosterilant against fruit flies of the genus Anastrepha (Diptera: Tephritidae)” (2010)
Calls of active or inactive are those of the source. The rule behind the calls is not given here.

Assays:
[1] = system: Anastrepha ludens; assay: Reduction of fertility in 7 days old adult of Anastrepha ludens assessed as reduction of egg hatching at 5 mg/g treated with diet measured after 3 days oviposition; type: functional; design: scale not given: the % may be the effect or the level left
[2] = system: Anastrepha striata; assay: Reduction of fertility in 7 days old adult of Anastrepha striata assessed as reduction of egg hatching at 30 mg/g treated with diet measured after 7 days oviposition; type: functional; design: scale not given: the % may be the effect or the level left
[3] = system: Anastrepha serpentina; assay: Reduction of fertility in 7 days old adult of Anastrepha serpentina assessed as reduction of egg hatching at 0.5 mg/g treated with diet measured after 7 days oviposition; type: functional; design: scale not given: the % may be the effect or the level left
[4] = system: Anastrepha obliqua; assay: Reduction of fertility in 7 days old adult of Anastrepha obliqua assessed as reduction of egg hatching at 0.5 mg/g treated with diet measured after 5 days oviposition; type: functional; design: scale not given: the % may be the effect or the level left
[5] = system: Anastrepha striata; assay: Reduction of fertility in 7 days old adult of Anastrepha striata assessed as reduction of egg hatching at 0.5 mg/g treated with diet measured after 5 days oviposition; type: functional; design: scale not given: the % may be the effect or the level left
[6] = system: Anastrepha striata; assay: Reduction of fertility in 7 days old adult of Anastrepha striata assessed as reduction of egg hatching at 10 mg/g treated with diet measured after 3 days oviposition; type: functional; design: scale not given: the % may be the effect or the level left
[7] = system: Anastrepha serpentina; assay: Reduction of fertility in 7 days old adult of Anastrepha serpentina assessed as reduction of egg hatching at 1 mg/g treated with diet measured after 7 days oviposition; type: functional; design: scale not given: the % may be the effect or the level left
[8] = system: Anastrepha obliqua; assay: Effect on fecundity in 7 days old adult male of Anastrepha obliqua at 30 mg/g treated with diet after 24 hr in presence of untreated adult female of Anastrepha obliqua; type: functional, organism-based
[9] = system: Anastrepha serpentina; assay: Reduction of fertility in 7 days old adult of Anastrepha serpentina assessed as reduction of egg hatching at 10 mg/g treated with diet measured after 7 days oviposition; type: functional; design: scale not given: the % may be the effect or the level left
[10] = system: Anastrepha ludens; assay: Reduction of fertility in 7 days old adult of Anastrepha ludens assessed as reduction of egg hatching at 10 mg/g treated with diet measured after 1 day oviposition; type: functional; design: scale not given: the % may be the effect or the level left
[11] = system: Anastrepha serpentina; assay: Reduction of fertility in 7 days old adult of Anastrepha serpentina assessed as reduction of egg hatching at 1 mg/g treated with diet measured after 3 days oviposition; type: functional; design: scale not given: the % may be the effect or the level left
[12] = system: Anastrepha striata; assay: Reduction of fertility in 7 days old adult of Anastrepha striata assessed as reduction of egg hatching at 0.5 mg/g treated with diet measured after 7 days oviposition; type: functional; design: scale not given: the % may be the effect or the level left
[13] = system: Anastrepha obliqua; assay: Reduction of fertility in 7 days old adult of Anastrepha obliqua assessed as reduction of egg hatching at 30 mg/g treated with diet measured after 7 days oviposition; type: functional; design: scale not given: the % may be the effect or the level left
[14] = system: Anastrepha ludens; assay: Effect on fecundity in 7 days old adult female of Anastrepha ludens at 30 mg/g treated with diet after 24 hr in presence of untreated adult male of Anastrepha ludens; type: functional, organism-based
[15] = system: Anastrepha ludens; assay: Reduction of fertility in 7 days old adult of Anastrepha ludens assessed as reduction of egg hatching at 30 mg/g treated with diet measured after 5 days oviposition; type: functional; design: scale not given: the % may be the effect or the level left
[16] = system: Anastrepha ludens; assay: Reduction of fertility in 7 days old adult of Anastrepha ludens assessed as reduction of egg hatching at 30 mg/g treated with diet measured after 1 day oviposition; type: functional; design: scale not given: the % may be the effect or the level left
[17] = system: Anastrepha obliqua; assay: Reduction of fertility in 7 days old adult of Anastrepha obliqua assessed as reduction of egg hatching at 5 mg/g treated with diet measured after 7 days oviposition; type: functional; design: scale not given: the % may be the effect or the level left
[18] = system: Anastrepha ludens; assay: Effect on fertility in 7 days old adult female of Anastrepha ludens at 30 mg/g treated with diet after 24 hr in presence of untreated adult male of Anastrepha ludens; type: functional, organism-based
[19] = system: Anastrepha obliqua; assay: Reduction of fertility in 7 days old adult of Anastrepha obliqua assessed as reduction of egg hatching at 0.1 mg/g treated with diet measured after 5 days oviposition; type: functional; design: scale not given: the % may be the effect or the level left
[20] = system: Anastrepha ludens; assay: Reduction of fertility in 7 days old adult of Anastrepha ludens assessed as reduction of egg hatching at 10 mg/g treated with diet measured after 11 days oviposition; type: functional; design: scale not given: the % may be the effect or the level left
[21] = system: Anastrepha obliqua; assay: Reduction of fertility in 7 days old adult of Anastrepha obliqua assessed as reduction of egg hatching at 30 mg/g treated with diet measured after 5 days oviposition; type: functional; design: scale not given: the % may be the effect or the level left
[22] = system: Anastrepha ludens; assay: Reduction of fertility in 7 days old adult of Anastrepha ludens assessed as reduction of egg hatching at 5 mg/g treated with diet measured after 7 days oviposition; type: functional; design: scale not given: the % may be the effect or the level left
[23] = system: Anastrepha ludens; assay: Reduction of fertility in 7 days old adult of Anastrepha ludens assessed as reduction of egg hatching at 10 mg/g treated with diet measured after 3 days oviposition; type: functional; design: scale not given: the % may be the effect or the level left
[24] = system: Anastrepha striata; assay: Effect on fertility in 7 days old adult male of Anastrepha striata at 30 mg/g treated with diet after 24 hr in presence of untreated adult female of Anastrepha striata; type: functional, organism-based
[25] = system: Anastrepha obliqua; assay: Reduction of fertility in 7 days old adult of Anastrepha obliqua assessed as reduction of egg hatching at 1 mg/g treated with diet measured after 7 days oviposition; type: functional; design: scale not given: the % may be the effect or the level left
[26] = system: Anastrepha ludens; assay: Reduction of fertility in 7 days old adult of Anastrepha ludens assessed as reduction of egg hatching at 1 mg/g treated with diet measured after 5 days oviposition; type: functional; design: scale not given: the % may be the effect or the level left
[27] = system: Anastrepha striata; assay: Reduction of fertility in 7 days old adult of Anastrepha striata assessed as reduction of egg hatching at 0.5 mg/g treated with diet measured after 1 day oviposition; type: functional; design: scale not given: the % may be the effect or the level left
[28] = system: Anastrepha serpentina; assay: Reduction of fertility in 7 days old adult of Anastrepha serpentina assessed as reduction of egg hatching at 5 mg/g treated with diet measured after 1 day oviposition; type: functional; design: scale not given: the % may be the effect or the level left
[29] = system: Anastrepha striata; assay: Reduction of fertility in 7 days old adult of Anastrepha striata assessed as reduction of egg hatching at 0.1 mg/g treated with diet measured after 1 day oviposition; type: functional; design: scale not given: the % may be the effect or the level left
[30] = system: Anastrepha ludens; assay: Reduction of fertility in 7 days old adult of Anastrepha ludens assessed as reduction of egg hatching at 10 mg/g treated with diet measured after 9 days oviposition; type: functional; design: scale not given: the % may be the effect or the level left
[31] = system: Anastrepha striata; assay: Reduction of fertility in 7 days old adult of Anastrepha striata assessed as reduction of egg hatching at 10 mg/g treated with diet measured after 11 days oviposition; type: functional; design: scale not given: the % may be the effect or the level left
[32] = system: Anastrepha striata; assay: Reduction of fertility in 7 days old adult of Anastrepha striata assessed as reduction of egg hatching at 5 mg/g treated with diet measured after 9 days oviposition; type: functional; design: scale not given: the % may be the effect or the level left
[33] = system: Anastrepha serpentina; assay: Reduction of fertility in 7 days old adult of Anastrepha serpentina assessed as reduction of egg hatching at 10 mg/g treated with diet measured after 11 days oviposition; type: functional; design: scale not given: the % may be the effect or the level left
[34] = system: Anastrepha ludens; assay: Reduction of fertility in 7 days old adult of Anastrepha ludens assessed as reduction of egg hatching at 5 mg/g treated with diet measured after 5 days oviposition; type: functional; design: scale not given: the % may be the effect or the level left
[35] = system: Anastrepha obliqua; assay: Reduction of fertility in 7 days old adult of Anastrepha obliqua assessed as reduction of egg hatching at 10 mg/g treated with diet measured after 7 days oviposition; type: functional; design: scale not given: the % may be the effect or the level left
[36] = system: Anastrepha ludens; assay: Reduction of fertility in 7 days old adult of Anastrepha ludens assessed as reduction of egg hatching at 0.5 mg/g treated with diet measured after 11 days oviposition; type: functional; design: scale not given: the % may be the effect or the level left
[37] = system: Anastrepha serpentina; assay: Reduction of fertility in 7 days old adult of Anastrepha serpentina assessed as reduction of egg hatching at 10 mg/g treated with diet measured after 5 days oviposition; type: functional; design: scale not given: the % may be the effect or the level left
[38] = system: Anastrepha striata; assay: Reduction of fertility in 7 days old adult of Anastrepha striata assessed as reduction of egg hatching at 30 mg/g treated with diet measured after 9 days oviposition; type: functional; design: scale not given: the % may be the effect or the level left
[39] = system: Anastrepha obliqua; assay: Reduction of fertility in 7 days old adult of Anastrepha obliqua assessed as reduction of egg hatching at 0.5 mg/g treated with diet measured after 11 days oviposition; type: functional; design: scale not given: the % may be the effect or the level left
[40] = system: Anastrepha serpentina; assay: Reduction of fertility in 7 days old adult of Anastrepha serpentina assessed as reduction of egg hatching at 0.5 mg/g treated with diet measured after 1 day oviposition; type: functional; design: scale not given: the % may be the effect or the level left

Structure (SMILES): O=C(NC(=O)c1c(F)cccc1F)Nc1cc(Cl)c(OC(F)(F)C(F)C(F)(F)F)cc1Cl (racemic) [LUFENURON]
- Activity [1]: 16%
- Activity [2]: 0.7%
- Activity [3]: 86.7%
- Activity [4]: 0%
- Activity [5]: 14%
- Activity [6]: 10.7%
- Activity [7]: 92.5%
- Activity [8]: inactive
- Activity [9]: 65.8%
- Activity [10]: 6%
- Activity [11]: 71.1%
- Activity [12]: 19.3%
- Activity [13]: 0.7%
- Activity [14]: inactive
- Activity [15]: 4%
- Activity [16]: 3%
- Activity [17]: 0%
- Activity [18]: inactive
- Activity [19]: 8.7%
- Activity [20]: 16.7%
- Activity [21]: 0%
- Activity [22]: 28%
- Activity [23]: 4.7%
- Activity [24]: inactive
- Activity [25]: 0.7%
- Activity [26]: 8%
- Activity [27]: 13.3%
- Activity [28]: 34.8%
- Activity [29]: 48.7%
- Activity [30]: 14.7%
- Activity [31]: 6%
- Activity [32]: 8.7%
- Activity [33]: 79.3%
- Activity [34]: 20%
- Activity [35]: 1.3%
- Activity [36]: 26.7%
- Activity [37]: 54.7%
- Activity [38]: 7.3%
- Activity [39]: 4%
- Activity [40]: 88.3%
